Measurements published in US10167257B2, “Indole derivatives for use in medicine” (IOmet Pharma Ltd., priority 2014, dated 2019).

Assays:
IDO (SKOV-3 cells) = target: T1, IDO (SKOV-3 cells) (Homo sapiens, UniProt P14902); test: IDO cell-based assay (SKOV-3, IFNγ-induced), kynurenine production; conditions: SKOV-3 ovary adenocarcinoma cells, IFNγ 500 ng/ml, 500 μM L-Trp, 48 h, kynurenine by absorbance at 490 nm
T1 construct: This assay utilised cancer cells which expressed either TDO or IDO; host or cells: SKOV-3 ovary adenocarcinoma cells, IFNγ-induced
Summary of the method: (§1)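 Kynurenine output was read at 490 nm after 5 min with 1% Ehrlich's reagent, using supernatants from 48 h, 37 °C cultures containing 500 μM L-Trp and test compound. TDO activity came from A172 cells. IDO activity came from SKOV-3 cells, whose expression was induced by adding 500 ng/ml IFNγ.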

TDO (A172 cells) = target: T2, TDO (A172 cells) (Homo sapiens, UniProt P48775); test: TDO cell-based assay (A172), kynurenine production; conditions: A172 human glioblastoma cells, 500 μM L-Trp, 48 h, kynurenine by absorbance at 490 nm
T2 construct: This assay utilised cancer cells which expressed either TDO or IDO; host or cells: A172 human glioblastoma cells
Summary of the method: as §1

T2 sequence (P48775 whole entry): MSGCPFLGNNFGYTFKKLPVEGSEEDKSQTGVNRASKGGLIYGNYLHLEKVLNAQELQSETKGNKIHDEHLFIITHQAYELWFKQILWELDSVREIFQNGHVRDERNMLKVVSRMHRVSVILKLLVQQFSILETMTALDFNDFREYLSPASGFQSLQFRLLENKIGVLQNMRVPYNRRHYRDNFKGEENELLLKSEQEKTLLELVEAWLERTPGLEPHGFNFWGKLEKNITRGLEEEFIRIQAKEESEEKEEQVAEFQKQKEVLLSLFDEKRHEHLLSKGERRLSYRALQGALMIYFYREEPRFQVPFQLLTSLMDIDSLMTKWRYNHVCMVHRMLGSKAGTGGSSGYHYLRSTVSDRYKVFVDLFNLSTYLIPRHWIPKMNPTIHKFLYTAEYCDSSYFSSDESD
T1 sequence (P14902 whole entry): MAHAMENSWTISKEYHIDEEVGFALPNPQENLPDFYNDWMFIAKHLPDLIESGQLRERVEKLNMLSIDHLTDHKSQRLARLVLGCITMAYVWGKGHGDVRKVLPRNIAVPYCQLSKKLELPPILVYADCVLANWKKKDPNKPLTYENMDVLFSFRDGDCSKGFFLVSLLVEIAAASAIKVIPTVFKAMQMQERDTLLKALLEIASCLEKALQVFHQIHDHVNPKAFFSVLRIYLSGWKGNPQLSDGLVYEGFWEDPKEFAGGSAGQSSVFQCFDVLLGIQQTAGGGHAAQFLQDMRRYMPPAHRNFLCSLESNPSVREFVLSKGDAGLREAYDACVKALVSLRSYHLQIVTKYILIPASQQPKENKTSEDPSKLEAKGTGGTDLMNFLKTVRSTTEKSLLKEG

| Compound | IDO cellular assay (SKOV3) pIC50 (IDO (SKOV-3 cells)) | TDO cellular assay (A172) pIC50 (TDO (A172 cells)) |
| --- | --- | --- |
| COc1ccc2cc(C(=O)NC3(c4ccccc4)CC3)[nH]c2c1 [Compound 162] | ++ (++ = pIC50 5.00-<5.50) | − (− = pIC50 <4.50) |
| C[C@@H](NC(=O)c1cc2cc(Cl)cnc2[nH]1)c1ccccc1 [Compound 163] | + (+ = pIC50 4.50-<5.00) | − (− = pIC50 <4.50) |
| O=C(NC1(c2ccccc2)CC1)c1cc2cc(Cl)cnc2[nH]1 [Compound 164] | +++ (+++ = pIC50 ≥5.50) | − (− = pIC50 <4.50) |
| CC(NC(=O)c1cc2cc(Cl)cnc2[nH]1)c1cnn(C)c1 (centres unmarked) [Compound 165] | + (+ = pIC50 4.50-<5.00) | − (− = pIC50 <4.50) |
| COc1ccc2cc(C(=O)NC(C)c3cnn(C)c3)[nH]c2c1 (centres unmarked) [Compound 166] | + (+ = pIC50 4.50-<5.00) | − (− = pIC50 <4.50) |
| COc1ccc2cc(C(=O)NC3(c4cnn(C)c4)CC3)[nH]c2c1 [Compound 167] | ++ (++ = pIC50 5.00-<5.50) | − (− = pIC50 <4.50) |
| Cn1cc(C2(NC(=O)c3cc4cc(C(F)(F)F)ccc4[nH]3)CC2)cn1 [Compound 168] | +++ (+++ = pIC50 ≥5.50) | + (+ = pIC50 4.50-<5.00) |
| COc1ccc2cc(C(=O)NC3(c4ccccc4)COC3)[nH]c2c1 [Compound 169] | ++ (++ = pIC50 5.00-<5.50) | − (− = pIC50 <4.50) |
| O=C(NC1(c2ccccc2)COC1)c1cc2cc(C(F)(F)F)ccc2[nH]1 [Compound 170] | +++ (+++ = pIC50 ≥5.50) | + (+ = pIC50 4.50-<5.00) |
| O=C(NC1(c2ccccc2)COC1)c1cc2cc(Cl)cnc2[nH]1 [Compound 171] | +++ (+++ = pIC50 ≥5.50) | − (− = pIC50 <4.50) |
| O=C(NC1(c2ccccc2)CC1)c1cc2ccc(O)cc2[nH]1 [Compound 172] | + (+ = pIC50 4.50-<5.00) | − (− = pIC50 <4.50) |
| CC(NC(=O)c1cc2cc(Cl)ccc2[nH]1)c1ccn(-c2ccccc2)n1 (centres unmarked) [Compound 173] | +++ (+++ = pIC50 ≥5.50) | − (− = pIC50 <4.50) |
| C[C@@H](NC(=O)c1cc2cc(Cl)cc(F)c2[nH]1)c1ccccc1 [Compound 174] | +++ (+++ = pIC50 ≥5.50) | ++ (++ = pIC50 5.00-<5.50) |
| COc1ccc2[nH]c(C(=O)N[C@H](C)c3ccccc3)cc2c1 [Compound 175] | +++ (+++ = pIC50 ≥5.50) | − (− = pIC50 <4.50) |
| COc1ccc2[nH]c(C(=O)NC3(c4cnn(C)c4)CC3)cc2c1 [Compound 176] | +++ (+++ = pIC50 ≥5.50) | − (− = pIC50 <4.50) |
| Cn1cc(C2(NC(=O)c3cc4cc(Cl)cnc4[nH]3)CC2)cn1 [Compound 177] | ++ (++ = pIC50 5.00-<5.50) | − (− = pIC50 <4.50) |
| COc1ccc2[nH]c(C(=O)NC3(c4ccccc4)COC3)cc2c1 [Compound 178] | +++ (+++ = pIC50 ≥5.50) | − (− = pIC50 <4.50) |
| O=C(NC1(c2ncccn2)CC1)c1cc2cc(Cl)ccc2[nH]1 [Compound 179] | ++ (++ = pIC50 5.00-<5.50) | − (− = pIC50 <4.50) |
| C[C@@H](NC(=O)c1cc2ccc(C(F)F)cc2[nH]1)c1ccccc1 [Compound 180] | + (+ = pIC50 4.50-<5.00) | − (− = pIC50 <4.50) |
| C[C@@H](NC(=O)c1cc2cc(O)ccc2[nH]1)c1ccccc1 [Compound 181] | + (+ = pIC50 4.50-<5.00) | − (− = pIC50 <4.50) |
| COc1ccc2[nH]c(C(=O)NC3(c4ccccc4)CC3)cc2c1 [Compound 182] | +++ (+++ = pIC50 ≥5.50) | − (− = pIC50 <4.50) |
| C[C@@H](NC(=O)c1cc2c(F)c(Cl)ccc2[nH]1)c1ccccc1 [Compound 183] | +++ (+++ = pIC50 ≥5.50) | + (+ = pIC50 4.50-<5.00) |
| Cc1nnc(C(C)NC(=O)c2cc3cc(Cl)ccc3[nH]2)o1 (centres unmarked) [Compound 184] | ++ (++ = pIC50 5.00-<5.50) | − (− = pIC50 <4.50) |
| C[C@@H](NC(=O)c1cc2ccc(O)cc2[nH]1)c1ccccc1 [Compound 185] | + (+ = pIC50 4.50-<5.00) | + (+ = pIC50 4.50-<5.00) |
| COc1ccc2[nH]c(C(=O)NC(C)c3cnn(C)c3)cc2c1 (centres unmarked) [Compound 186] | +++ (+++ = pIC50 ≥5.50) | − (− = pIC50 <4.50) |

| Compound | IDO cellular assay (SKOV3) pIC50 (IDO (SKOV-3 cells)) | TDO cellular assay (A172) pIC50 (TDO (A172 cells)) |
| --- | --- | --- |
| O=C(NC1(c2ccccc2)CC1)c1cc2cc(O)ccc2[nH]1 [Compound 187] | + (+ = pIC50 4.50-<5.00) | − (− = pIC50 <4.50) |
| O=C(NC1(c2ccccc2)CC1)c1cc2cc(Cl)cc(F)c2[nH]1 [Compound 188] | +++ (+++ = pIC50 ≥5.50) | + (+ = pIC50 4.50-<5.00) |
| O=C(NC1(c2ccccc2)CC1)c1cc2ccc(C(F)F)cc2[nH]1 [Compound 189] | ++ (++ = pIC50 5.00-<5.50) | − (− = pIC50 <4.50) |
| CS(=O)(=O)Nc1ccc2cc(C(=O)NC3(c4ccccc4)CC3)[nH]c2c1 [Compound 190] | + (+ = pIC50 4.50-<5.00) | − (− = pIC50 <4.50) |
| Cn1cc(C2(NC(=O)c3cc4c(F)c(Cl)ccc4[nH]3)CC2)cn1 [Compound 191] | +++ (+++ = pIC50 ≥5.50) | − (− = pIC50 <4.50) |
| CC(NC(=O)c1cc2ccc(C(F)F)cc2[nH]1)c1cnn(C)c1 (centres unmarked) [Compound 192] | + (+ = pIC50 4.50-<5.00) | − (− = pIC50 <4.50) |
| CC(NC(=O)c1cc2c(F)c(Cl)ccc2[nH]1)c1cnn(C)c1 (centres unmarked) [Compound 193] | +++ (+++ = pIC50 ≥5.50) | − (− = pIC50 <4.50) |
| O=C(NC1(c2ccccc2)CC1)c1cc2c(F)c(Cl)ccc2[nH]1 [Compound 194] | +++ (+++ = pIC50 ≥5.50) | − (− = pIC50 <4.50) |
| COCCn1cc(C(C)NC(=O)c2cc3cc(Cl)ccc3[nH]2)cn1 (centres unmarked) [Compound 195] | ++ (++ = pIC50 5.00-<5.50) | − (− = pIC50 <4.50) |
| Cn1cc(C2(NC(=O)c3cc4ccc(O)cc4[nH]3)CC2)cn1 [Compound 196] | + (+ = pIC50 4.50-<5.00) | − (− = pIC50 <4.50) |
| COCCn1cc(C(C)NC(=O)c2cc3cc(C#N)ccc3[nH]2)cn1 (centres unmarked) [Compound 197] | + (+ = pIC50 4.50-<5.00) | − (− = pIC50 <4.50) |
| Cc1c(C2(NC(=O)c3cc4cc(Cl)ccc4[nH]3)CC2)cnn1C [Compound 198] | +++ (+++ = pIC50 ≥5.50) | − (− = pIC50 <4.50) |
| Cc1noc(C(C)NC(=O)c2cc3cc(Cl)ccc3[nH]2)n1 (centres unmarked) [Compound 199] | +++ (+++ = pIC50 ≥5.50) | − (− = pIC50 <4.50) |
| Cc1nc(C(C)NC(=O)c2cc3cc(Cl)ccc3[nH]2)co1 (centres unmarked) [Compound 200] | +++ (+++ = pIC50 ≥5.50) | − (− = pIC50 <4.50) |
| CC(NC(=O)c1cc2cc(Cl)ccc2[nH]1)c1ccn(C)n1 (centres unmarked) [Compound 201] | + (+ = pIC50 4.50-<5.00) | − (− = pIC50 <4.50) |
| CC(NC(=O)c1cc2cc(Cl)cc(F)c2[nH]1)c1cnn(C)c1 (centres unmarked) [Compound 202] | +++ (+++ = pIC50 ≥5.50) | − (− = pIC50 <4.50) |
| CC(NC(=O)c1cc2cc(Cl)c(F)cc2[nH]1)c1cnn(C)c1 (centres unmarked) [Compound 203] | ++ (++ = pIC50 5.00-<5.50) | + (+ = pIC50 4.50-<5.00) |
| Cn1cc(C2(NC(=O)c3cc4cc(Cl)c(F)cc4[nH]3)CC2)cn1 [Compound 204] | +++ (+++ = pIC50 ≥5.50) | − (− = pIC50 <4.50) |
| Cn1cc(C2(NC(=O)c3cc4cc(Cl)cc(F)c4[nH]3)CC2)cn1 [Compound 205] | +++ (+++ = pIC50 ≥5.50) | − (− = pIC50 <4.50) |
| Cn1cc(C2(NC(=O)c3cc4ccc(C(F)F)cc4[nH]3)CC2)cn1 [Compound 206] | + (+ = pIC50 4.50-<5.00) | − (− = pIC50 <4.50) |
| COc1ccc(-n2cc(C(C)NC(=O)c3cc4cc(Cl)ccc4[nH]3)cn2)cc1OC (centres unmarked) [Compound 207] | +++ (+++ = pIC50 ≥5.50) | + (+ = pIC50 4.50-<5.00) |
| C[C@@H](NC(=O)c1cc2cc(Cl)c(F)cc2[nH]1)c1ccccc1 [Compound 208] | +++ (+++ = pIC50 ≥5.50) | + (+ = pIC50 4.50-<5.00) |
| O=C(NC1(c2ccccc2)CC1)c1cc2cc(Cl)c(F)cc2[nH]1 [Compound 209] | +++ (+++ = pIC50 ≥5.50) | ++ (++ = pIC50 5.00-<5.50) |
| O=C(NC1(c2ccccc2)COC1)c1cc2cc(Cl)c(F)cc2[nH]1 [Compound 210] | +++ (+++ = pIC50 ≥5.50) | + (+ = pIC50 4.50-<5.00) |
